Measured values: PubChem BioAssay (NCI)
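Protocol summary: plate cells (96-well), add compound at 5 concentrations, incubate 48 h, interpolate endpoints linearly. GI50 marks 50% less growth. Definition used: TGI = concentration required for complete inhibition of growth.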

Columns and labels:
Assay in all cases: NCI-60 cell line screen, 48 h
MDA-MB-435 = system: MDA-MB-435
SNB-75 CNS = system: SNB-75 CNS
HCC-2998 colon = system: HCC-2998 colon
786-0 renal = system: 786-0 renal
M14 melanoma = system: M14 melanoma
RXF 393 renal = system: RXF 393 renal
UACC-62 melanoma = system: UACC-62 melanoma
KM12 colon = system: KM12 colon
BT-549 breast = system: BT-549 breast
SK-MEL-28 melanoma = system: SK-MEL-28 melanoma
NCI-H522 lung = system: NCI-H522 lung
COLO 205 colon = system: COLO 205 colon
SF-539 CNS = system: SF-539 CNS
OVCAR-5 ovarian = system: OVCAR-5 ovarian
CAKI-1 renal = system: CAKI-1 renal
UACC-257 melanoma = system: UACC-257 melanoma
CCRF-CEM leukemia = system: CCRF-CEM leukemia
HCT-15 colon = system: HCT-15 colon
K-562 leukemia = system: K-562 leukemia
TK-10 renal = system: TK-10 renal
IGROV1 ovarian = system: IGROV1 ovarian
HCT-116 colon = system: HCT-116 colon
NCI/ADR-RES ovarian = system: NCI/ADR-RES ovarian
SW-620 colon = system: SW-620 colon
NCI-H460 lung = system: NCI-H460 lung
HL-60(TB) leukemia = system: HL-60(TB) leukemia
HOP-62 NSCLC = system: HOP-62 NSCLC
SK-MEL-5 melanoma = system: SK-MEL-5 melanoma
PC-3 prostate = system: PC-3 prostate
OVCAR-4 ovarian = system: OVCAR-4 ovarian
MALME-3M melanoma = system: MALME-3M melanoma
SNB-19 CNS = system: SNB-19 CNS
OVCAR-8 ovarian = system: OVCAR-8 ovarian
DU-145 prostate = system: DU-145 prostate
RPMI-8226 leukemia = system: RPMI-8226 leukemia
SF-295 CNS = system: SF-295 CNS
MCF7 breast = system: MCF7 breast
SK-MEL-2 melanoma = system: SK-MEL-2 melanoma
A549 NSCLC = system: A549 NSCLC
LOX IMVI melanoma = system: LOX IMVI melanoma
HOP-92 NSCLC = system: HOP-92 NSCLC
HT29 colon = system: HT29 colon
ACHN renal = system: ACHN renal
NCI-H226 lung = system: NCI-H226 lung
UO-31 renal = system: UO-31 renal
EKVX NSCLC = system: EKVX NSCLC
U251 CNS = system: U251 CNS
SK-OV-3 ovarian = system: SK-OV-3 ovarian
SF-268 CNS = system: SF-268 CNS
SR leukemia = system: SR leukemia
MOLT-4 leukemia = system: MOLT-4 leukemia
HS 578T breast = system: HS 578T breast
SN12C renal = system: SN12C renal
OVCAR-3 ovarian = system: OVCAR-3 ovarian
A498 renal = system: A498 renal
NCI-H23 lung = system: NCI-H23 lung
MDA-MB-231 breast = system: MDA-MB-231 breast

## CCOC(=O)c1cc(C(=O)c2cc(OC)c(OC)c(OC)c2)n2ncccc12
MDA-MB-435
  GI50: 31.4 nM
  TGI: 117 nM
SNB-75 CNS
  GI50: 175 nM
  TGI: 42400 nM
HCC-2998 colon
  GI50: 2100 nM
  TGI: > 100000 nM
786-0 renal
  GI50: 2170 nM
  TGI: > 100000 nM
M14 melanoma
  GI50: 229 nM
  TGI: > 100000 nM
RXF 393 renal
  GI50: 215 nM
  TGI: 1840 nM
UACC-62 melanoma
  GI50: 196 nM
  TGI: > 100000 nM
KM12 colon
  GI50: 342 nM
  TGI: > 100000 nM
BT-549 breast
  GI50: 761 nM
  TGI: > 100000 nM
SK-MEL-28 melanoma
  GI50: 4680 nM
  TGI: > 100000 nM
NCI-H522 lung
  GI50: 290 nM
  TGI: > 21700 nM
COLO 205 colon
  GI50: 230 nM
  TGI: 1330 nM
SF-539 CNS
  GI50: 292 nM
  TGI: 2280 nM
OVCAR-5 ovarian
  GI50: 2720 nM
  TGI: > 100000 nM
CAKI-1 renal
  GI50: 374 nM
  TGI: > 100000 nM
UACC-257 melanoma
  GI50: 65700 nM
  TGI: > 100000 nM
CCRF-CEM leukemia
  GI50: 297 nM
  TGI: > 100000 nM
HCT-15 colon
  GI50: 251 nM
  TGI: > 100000 nM
K-562 leukemia
  GI50: 124 nM
  TGI: > 100000 nM
TK-10 renal
  GI50: 26400 nM
  TGI: > 100000 nM
IGROV1 ovarian
  GI50: 3470 nM
  TGI: > 100000 nM
HCT-116 colon
  GI50: 276 nM
  TGI: > 100000 nM
NCI/ADR-RES ovarian
  GI50: 237 nM
  TGI: > 42900 nM
SW-620 colon
  GI50: 185 nM
  TGI: > 100000 nM
NCI-H460 lung
  GI50: 335 nM
  TGI: > 100000 nM
HL-60(TB) leukemia
  GI50: 251 nM
  TGI: 763 nM
HOP-62 NSCLC
  GI50: 630 nM
  TGI: > 75600 nM
SK-MEL-5 melanoma
  GI50: 247 nM
  TGI: > 100000 nM
PC-3 prostate
  GI50: 289 nM
  TGI: > 100000 nM
OVCAR-4 ovarian
  GI50: 805 nM
  TGI: > 100000 nM
MALME-3M melanoma
  TGI: > 100000 nM
SNB-19 CNS
  GI50: 705 nM
  TGI: > 100000 nM
OVCAR-8 ovarian
  GI50: 584 nM
  TGI: > 100000 nM
DU-145 prostate
  GI50: 370 nM
  TGI: > 100000 nM
RPMI-8226 leukemia
  GI50: 316 nM
SF-295 CNS
  GI50: 219 nM
  TGI: 13900 nM
MCF7 breast
  GI50: 131 nM
  TGI: > 100000 nM
SK-MEL-2 melanoma
  GI50: 466 nM
  TGI: > 100000 nM
A549 NSCLC
  GI50: 621 nM
  TGI: > 100000 nM
LOX IMVI melanoma
  GI50: 2460 nM
  TGI: > 100000 nM
HOP-92 NSCLC
  GI50: 48500 nM
  TGI: > 100000 nM
HT29 colon
  GI50: 245 nM
  TGI: > 100000 nM
ACHN renal
  GI50: 1340 nM
  TGI: > 100000 nM
NCI-H226 lung
  GI50: 28200 nM
  TGI: > 100000 nM
UO-31 renal
  GI50: 782 nM
  TGI: > 100000 nM
EKVX NSCLC
  GI50: 650 nM
  TGI: > 100000 nM
U251 CNS
  GI50: 444 nM
  TGI: 37100 nM
SK-OV-3 ovarian
  GI50: 472 nM
  TGI: > 95100 nM
SF-268 CNS
  GI50: 3020 nM
  TGI: > 100000 nM
SR leukemia
  GI50: 126 nM
  TGI: > 100000 nM
MOLT-4 leukemia
  GI50: 575 nM
  TGI: > 100000 nM
HS 578T breast
  GI50: 309 nM
  TGI: 26100 nM
SN12C renal
  GI50: 821 nM
  TGI: > 100000 nM
OVCAR-3 ovarian
  GI50: 145 nM
  TGI: 1840 nM
A498 renal
  GI50: 46.6 nM
  TGI: 742 nM
NCI-H23 lung
  GI50: 707 nM
  TGI: > 100000 nM
MDA-MB-231 breast
  GI50: 1820 nM
  TGI: > 100000 nM
